Experimental data: publication PMC7403315, “Cyclic peptide FXII inhibitor provides safe anticoagulation in a thrombosis model and in artificial lungs” (Nature Communications, 2020)
Values joined by “and” are separate entries in the source; they are usually repeats but may differ in a detail not shown here. Equal entries are not always repeated. Starred links: 1 amine or outer side, 2 acyl side, 3 side chain; linkers in the order of their positions; H or OH if unused. Positions of bridges follow the written chain, without caps; N, C: chain ends. Non-standard residues stand in square brackets, D forms with d. Residues, ends and D or L forms follow the SMILES beside them. TATA = O=C(CC[*:1])N1CN(C(=O)CC[*:2])CN(C(=O)CC[*:3])C1; Phe(4-F) = N[C@@H](Cc1ccc(F)cc1)C(=O)O; β3hR = N=C(N)NCCC[C@H](N)CC(=O)O

Experiments:
Assay in all cases: Specificity profiling, residual protease activity
Format in all cases: biochemical
uPA = molecular target: T1, uPA (Homo sapiens, UniProt P00749)
T1 construct: purchased Molecular Innovations
Method: (§1) Protease inhibition assays
(§2) The inhibitory activity of peptides was determined by measuring the residual protease activity with a fluorogenic substrate. The assay was performed in buffer containing 10 mM Tris-Cl, pH […]
(§3) 1% (v/v) DMSO in a volume of 150 µl. […]
(§4) HFXIIAB) were used at final concentrations of 0.4 nM. The reaction was pipetted as follows: 50 µl of bicyclic peptide in assay buffer were added to 50 µl of FXIIa in assay buffer and incubated for 10 minutes at 25°C before 50 µl of 150 µM fluorogenic substrate in assay buffer were added to measure the residual protease activity with an Infinite M200Pro fluorescence plate reader (excitation at 368 nm, emission at 467 nm; Tecan) for a period of 30 minutes with a read every minute at 25°C. The Tecan software i-control (version 1.1) was used for data analysis. Stock solutions of 1 mM bicyclic peptide were prepared by either dissolving the unpurified cyclization reaction with water or by dissolving purified and lyophilized peptide in water. The bicyclic peptides were serially diluted two-fold using assay buffer. Sigmoidal curves were fitted to the data using the following dose response equation (1), wherein x = peptide concentration, y = % protease activity, and p = Hill slope. IC50 values were derived from the fitted curve.
(§5) The inhibition constants (Ki) were calculated according to the equation of Cheng and Prusoff, Ki = IC50/(1+([S]0/Km), wherein IC50 is the functional strength of the inhibitor, [S]0 is the total substrate concentration, and Km is the Michaelis-Menten constant. […]
(§6) For testing the specificity of the bicyclic peptides, the following final concentrations of human serine proteases were used: tPA (Molecular Innovations) 7.5 nM, uPA (Molecular Innovations) 1.5 nM, factor XIa (Innovative Research) 6 nM, plasma kallikrein (Innovative Research) 0.25 nM, thrombin (Molecular Innovations) 1 nM, plasmin (Molecular Innovations) 2.5 nM, trypsin (Molecular Innovations) 0.05 nM, factor VIIa (Haematologic Technologies) 50 nM, factor Xa […]
(§7) (Haematologic Technologies) 6 nM, and activated protein C (APC) 5 nM. Two-fold dilutions of the peptide were prepared that ranged from 0.04 to 40 µM. The following fluorogenic substrates were used at a final concentration of 50 µM: Z-Phe-Arg-AMC (Bachem) for plasma kallikrein; Boc-Phe-Ser-Arg-AMC (Bachem) for factor XIa; Z-Gly-Gly-Arg-AMC (Bachem) for tPA, uPA, thrombin, and trypsin; H-D-Val-Leu-Lys-AMC (Bachem) for plasmin; and D-Phe-Pro-Arg-ANSNH-C4H9 (Haematologic Technologies) for FVIIa and FXa. For APC, the chromogenic substrate pyroGlu-Pro-Arg-pNA (S2366) was used at a concentration of 400 µM. […]

thrombin = molecular target: T2, thrombin (Homo sapiens, UniProt P00734)
T2 construct: nM, thrombin (Molecular Innovations) 1 nM, plasmin (Molecular Innovations) 2.5 nM, trypsin; purchased Molecular Innovations
Method: as §1, §2, §3, §4, §5, §6, §7

tPA = molecular target: T3, tPA (Homo sapiens, UniProt P00750)
T3 construct: purchased Molecular Innovations
T3 sequence (P00750 36-562): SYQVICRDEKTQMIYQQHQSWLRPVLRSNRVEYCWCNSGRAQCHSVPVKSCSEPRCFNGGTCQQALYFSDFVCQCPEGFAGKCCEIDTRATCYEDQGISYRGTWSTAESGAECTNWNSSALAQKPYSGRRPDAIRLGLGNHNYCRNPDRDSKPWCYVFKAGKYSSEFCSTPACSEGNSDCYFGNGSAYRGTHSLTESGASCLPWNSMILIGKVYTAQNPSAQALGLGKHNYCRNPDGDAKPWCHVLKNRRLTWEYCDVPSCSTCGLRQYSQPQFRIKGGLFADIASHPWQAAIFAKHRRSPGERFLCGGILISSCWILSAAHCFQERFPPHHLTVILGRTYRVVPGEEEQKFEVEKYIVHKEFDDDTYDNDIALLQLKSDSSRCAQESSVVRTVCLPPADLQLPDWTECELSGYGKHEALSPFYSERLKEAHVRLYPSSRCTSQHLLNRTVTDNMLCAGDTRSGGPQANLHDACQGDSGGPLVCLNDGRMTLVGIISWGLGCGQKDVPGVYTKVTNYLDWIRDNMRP
Method: as §1, §2, §3, §4, §5, §6, §7

plasmin = molecular target: T4, plasmin (Homo sapiens, UniProt P00747)
T4 construct: nM, thrombin (Molecular Innovations) 1 nM, plasmin (Molecular Innovations) 2.5 nM, trypsin; purchased Molecular Innovations
T4 sequence (P00747 581-810 limits assumed): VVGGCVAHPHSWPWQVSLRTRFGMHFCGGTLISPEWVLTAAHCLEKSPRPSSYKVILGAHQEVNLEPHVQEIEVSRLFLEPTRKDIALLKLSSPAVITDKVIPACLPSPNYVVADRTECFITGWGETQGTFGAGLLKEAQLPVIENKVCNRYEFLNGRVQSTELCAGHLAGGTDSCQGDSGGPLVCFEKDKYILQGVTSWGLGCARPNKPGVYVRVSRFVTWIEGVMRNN
T4 sequence (P00747 97-580 limits assumed): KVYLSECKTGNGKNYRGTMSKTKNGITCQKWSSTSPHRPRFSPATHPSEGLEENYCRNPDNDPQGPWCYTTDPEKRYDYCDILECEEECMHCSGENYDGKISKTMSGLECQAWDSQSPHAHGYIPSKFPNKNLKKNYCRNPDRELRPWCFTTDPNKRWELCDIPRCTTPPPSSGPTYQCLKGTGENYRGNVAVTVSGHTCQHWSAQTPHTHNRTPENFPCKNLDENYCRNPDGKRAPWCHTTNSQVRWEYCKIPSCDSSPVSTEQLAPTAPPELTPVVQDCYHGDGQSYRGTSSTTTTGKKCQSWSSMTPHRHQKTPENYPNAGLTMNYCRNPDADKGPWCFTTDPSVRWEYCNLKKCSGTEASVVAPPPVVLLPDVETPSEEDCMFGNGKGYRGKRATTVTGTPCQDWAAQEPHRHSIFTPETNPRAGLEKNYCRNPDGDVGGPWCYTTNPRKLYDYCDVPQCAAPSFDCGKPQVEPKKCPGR
Method: as §1, §2, §3, §4, §5, §6, §7

[1] = inhibitor 39.0625 nM, 0.0390625 µM
[2] = inhibitor 78.125 nM, 0.078125 µM
[3] = inhibitor 156.25 nM, 0.15625 µM
[4] = inhibitor 40000 nM (40 µM), 40 µM

SMILES: CC(C)C[C@@H]1NC(=O)[C@H](CCC(N)=O)NC(=O)[C@H](Cc2c[nH]cn2)NC(=O)[C@@H]2CSCCC(=O)N3CN(CN(C3)C(=O)CCSC[C@H](NC(=O)[C@@H](CO)NC(=O)[C@H](N)CCCNC(=N)N)C(=O)N[C@@H](Cc3ccc(F)cc3)C(=O)N[C@@H](CCCNC(=N)N)C(=O)N[C@@H](CC(C)C)C(=O)N3CCC[C@H]3C(=O)N2)C(=O)CCSC[C@@H](C(N)=O)NC(=O)C[C@H](CCCNC(=N)N)NC1=O [FXII900] (H-[dR][dS]C[Phe(4-F)]RLPCHQL[β3hR]C-NH2; linker 3-8-13 via TATA)
- Ki (uPA): > 40 µM
- remaining activity at 0.0390625 µM (uPA; inhibitor 39.0625 nM): 96.1%
- Residual activity of uPa (uPA; [1]): 99.3438%
- remaining activity at 0.078125 µM (uPA; inhibitor 78.125 nM): 94.9%
- Residual activity of uPa (uPA; [2]): 99.5842%
- remaining activity at 0.15625 µM (uPA; inhibitor 156.25 nM): 99.6%
- Residual activity of uPa (uPA; [3]): 106.929%
- remaining activity at 0.3125 µM (uPA; inhibitor 312.5 nM): 98.2%
- Residual activity of uPa (uPA; inhibitor 312.5 nM, 0.3125 µM): 103.987%
- remaining activity at 0.625 µM (uPA; inhibitor 625 nM): 98.8%
- Residual activity of uPa (uPA; inhibitor 625 nM, 0.625 µM): 103.035%
- remaining activity at 1.25 µM (uPA; inhibitor 1250 nM): 100%
- Residual activity of uPa (uPA; inhibitor 1250 nM, 1.25 µM): 106.211%
- remaining activity at […] (uPA; inhibitor 2500 nM): 101%
- Residual activity of uPa (uPA; inhibitor 2500 nM, […]): 90.2133%
- remaining activity at 5 µM (uPA; inhibitor 5000 nM): 99.4%
- Residual activity of uPa (uPA; inhibitor 5000 nM, 5 µM): 106.237%
- remaining activity at 10 µM (uPA; inhibitor 10000 nM): 96.6%
- Residual activity of uPa (uPA; inhibitor 10000 nM, 10 µM): 102.075%
- remaining activity at 20 µM (uPA; inhibitor 20000 nM): 96.3%
- Residual activity of uPa (uPA; inhibitor 20000 nM, 20 µM): 101.698%
- remaining activity at 40 µM (uPA; inhibitor 40000 nM (40 µM)): 98.7%
- Residual activity of uPa (uPA; [4]): 97.4594% and 105.626%
- Ki (thrombin): > 40 µM
- remaining activity at 0.0390625 µM (thrombin; inhibitor 39.0625 nM): 101%
- Residual activity of Thrombin (thrombin; [1]): 100%
- remaining activity at 0.078125 µM (thrombin; inhibitor 78.125 nM): 103%
- Residual activity of Thrombin (thrombin; [2]): 98.3135%
- remaining activity at 0.15625 µM (thrombin; inhibitor 156.25 nM): 105%
- Residual activity of Thrombin (thrombin; [3]): 102.594%
- remaining activity at 0.3125 µM (thrombin; inhibitor 312.5 nM): 104%
- Residual activity of Thrombin (thrombin; inhibitor 312.5 nM, 0.3125 µM): 101.218%
- remaining activity at 0.625 µM (thrombin; inhibitor 625 nM): 102%
- Residual activity of Thrombin (thrombin; inhibitor 625 nM, 0.625 µM): 96.4184%
- remaining activity at 1.25 µM (thrombin; inhibitor 1250 nM): 105%
- Residual activity of Thrombin (thrombin; inhibitor 1250 nM, 1.25 µM): 102.09%
- remaining activity at […] (thrombin; inhibitor 2500 nM): 103%
- Residual activity of Thrombin (thrombin; inhibitor 2500 nM, […]): 101.007%
- remaining activity at 5 µM (thrombin; inhibitor 5000 nM): 105%
- Residual activity of Thrombin (thrombin; inhibitor 5000 nM, 5 µM): 93.4869%
- remaining activity at 10 µM (thrombin; inhibitor 10000 nM): 99%
- Residual activity of Thrombin (thrombin; inhibitor 10000 nM, 10 µM): 98.045%
- remaining activity at 20 µM (thrombin; inhibitor 20000 nM): 102%
- Residual activity of Thrombin (thrombin; inhibitor 20000 nM, 20 µM): 95.8152%
- remaining activity at 40 µM (thrombin; inhibitor 40000 nM (40 µM)): 95%
- Residual activity of Thrombin (thrombin; [4]): 99.0803% and 90.0661%
- Ki (tPA): > 40 µM
- remaining activity at 0.0390625 µM (tPA; inhibitor 39.0625 nM): 95.1%
- Residual activity of tPa (tPA; [1]): 93.3208%
- remaining activity at 0.078125 µM (tPA; inhibitor 78.125 nM): 95.9%
- Residual activity of tPa (tPA; [2]): 101.687%
- remaining activity at 0.15625 µM (tPA; inhibitor 156.25 nM): 98.8%
- Residual activity of tPa (tPA; [3]): 101.694%
- remaining activity at 0.3125 µM (tPA; inhibitor 312.5 nM): 97.2%
- Residual activity of tPa (tPA; inhibitor 312.5 nM, 0.3125 µM): 101.741%
- remaining activity at 0.625 µM (tPA; inhibitor 625 nM): 95%
- Residual activity of tPa (tPA; inhibitor 625 nM, 0.625 µM): 94.8368%
- remaining activity at 1.25 µM (tPA; inhibitor 1250 nM): 101%
- Residual activity of tPa (tPA; inhibitor 1250 nM, 1.25 µM): 102.859%
- remaining activity at […] (tPA; inhibitor 2500 nM): 100%
- Residual activity of tPa (tPA; inhibitor 2500 nM, […]): 101.452%
- remaining activity at 5 µM (tPA; inhibitor 5000 nM): 87.2%
- Residual activity of tPa (tPA; inhibitor 5000 nM, 5 µM): 93.856%
- Residual activity of tPa (tPA; inhibitor 10000 nM, 10 µM): 102.407% and 77.7753%
- remaining activity at 20 µM (tPA; inhibitor 20000 nM): 89.2%
- Residual activity of tPa (tPA; inhibitor 20000 nM, 20 µM): 97.2498%
- remaining activity at 40 µM (tPA; inhibitor 40000 nM (40 µM)): 97%
- Residual activity of tPa (tPA; [4]): 94.4809% and 101.833%
- Ki (plasmin): > 40 µM
- remaining activity at 0.0390625 µM (plasmin; inhibitor 39.0625 nM): 101%
- Residual activity of Plasmin (plasmin; [1]): 100% and 98.04%
- remaining activity at 0.078125 µM (plasmin; inhibitor 78.125 nM): 99.7%
- Residual activity of Plasmin (plasmin; [2]): 92.966% and 98.2808%
- remaining activity at 0.15625 µM (plasmin; inhibitor 156.25 nM): 99.4%
- Residual activity of Plasmin (plasmin; [3]): 100.413% and 98.2682%
- remaining activity at 0.3125 µM (plasmin; inhibitor 312.5 nM): 98.2%
- Residual activity of Plasmin (plasmin; inhibitor 312.5 nM, 0.3125 µM): 95.1408% and 95.4545%
- remaining activity at 0.625 µM (plasmin; inhibitor 625 nM): 98.8%
- Residual activity of Plasmin (plasmin; inhibitor 625 nM, 0.625 µM): 96.2495% and 97.8119%
- remaining activity at 1.25 µM (plasmin; inhibitor 1250 nM): 95.1%
- Residual activity of Plasmin (plasmin; inhibitor 1250 nM, 1.25 µM): 99.629% and 97.1835%
- remaining activity at […] (plasmin; inhibitor 2500 nM): 92%
- remaining activity at 5 µM (plasmin; inhibitor 5000 nM): 96%
- Residual activity of Plasmin (plasmin; inhibitor 5000 nM, 5 µM): 97.8045% and 97.3192%
- remaining activity at 10 µM (plasmin; inhibitor 10000 nM): 93.7%
- Residual activity of Plasmin (plasmin; inhibitor 10000 nM, 10 µM): 101.477% and 94.8276%
- remaining activity at 20 µM (plasmin; inhibitor 20000 nM): 87.5%
- Residual activity of Plasmin (plasmin; inhibitor 20000 nM, 20 µM): 91.7224% and 90.5875%
- remaining activity at 40 µM (plasmin; inhibitor 40000 nM (40 µM)): 86 ± 5%
- Residual activity of Plasmin (plasmin; [4]): 82.6102% and 91.6986% and 84.2986%
